pEC50: −log10 of the molar value. Like-named read-outs stand apart in the source and are kept apart here.
Assays:
hGIPR = target: T1, hGIPR (Homo sapiens, UniProt P48546); experiment: hGIPR CreLuc assay in 0.5% and 100% plasma (CHO CRE-luciferase reporter cells); format: cell-based; conditions: 0.5% human plasma; for pEC50: read-out: hGIPR 0.5% hP
T1 construct: expressed in transfected cells; host or cells: CHO CRE-luciferase reporter cells
T1 sequence (P48546 22-466): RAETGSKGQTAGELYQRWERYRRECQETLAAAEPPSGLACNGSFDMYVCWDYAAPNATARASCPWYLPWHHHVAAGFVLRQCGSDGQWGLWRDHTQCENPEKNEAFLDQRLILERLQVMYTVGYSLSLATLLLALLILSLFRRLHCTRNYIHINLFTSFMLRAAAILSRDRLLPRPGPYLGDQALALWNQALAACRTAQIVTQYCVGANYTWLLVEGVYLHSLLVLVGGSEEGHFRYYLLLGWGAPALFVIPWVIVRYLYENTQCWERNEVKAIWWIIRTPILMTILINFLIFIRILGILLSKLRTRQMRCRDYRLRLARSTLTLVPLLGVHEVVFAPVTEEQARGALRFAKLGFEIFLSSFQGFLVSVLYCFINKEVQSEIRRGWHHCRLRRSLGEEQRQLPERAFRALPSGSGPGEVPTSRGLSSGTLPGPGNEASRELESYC

[1] = Solubility in 0.1 M phosphate buffer at pH 7; format: physicochemical; conditions: 0.1 M phosphate buffer at pH 7, 10 mg/mL final peptide concentration, shaking 2 hours at room temperature, peptides as TFA-salts; measured sample pH 6.5-7.0

pEC50 (hGIPR)	solubility at 2 h [1] [µg/mL]	Compound	EC50 (hGIPR; hGIPR 0.5% hP (nM)) [nM]
9.22	10000	CC[C@H](C)[C@H](NC(=O)[C@H](CC(C)C)NC(=O)[C@H](Cc1c[nH]cn1)NC(=O)[C@H](CCCNC(=N)N)NC(=O)[C@@H](NC(=O)[C@H](Cc1ccccc1)NC(=O)[C@H](C)NC(=O)C(C)(C)NC(=O)[C@H](CCC(N)=O)NC(=O)[C@H](C)NC(=O)[C@H](CCC(N)=O)NC(=O)[C@H](CCCCN)NC(=O)[C@H](CCC(=O)O)NC(=O)[C@H](CC(C)C)NC(=O)C(C)(C)NC(=O)[C@@H](NC(=O)[C@H](CO)NC(=O)[C@H](Cc1ccc(O)cc1)NC(=O)[C@H](CC(=O)O)NC(=O)[C@H](CO)NC(=O)[C@@H](NC(=O)[C@H](Cc1ccccc1)NC(=O)[C@@H](NC(=O)CNC(=O)[C@H](CCC(=O)O)NC(=O)C(C)(C)NC(=O)[C@@H](N)Cc1ccc(O)cc1)[C@@H](C)O)[C@@H](C)O)[C@@H](C)CC)C(C)C)C(=O)N[C@@H](CC(N)=O)C(=O)N[C@@H](CCCCNC(=O)[C@@H](N)CCCCNC(=O)CC[C@H](NC(=O)CC[C@H](NC(=O)CC[C@H](NC(=O)CC[C@H](NC(=O)CC[C@H](NC(=O)CC[C@H](NC(=O)CCCCCCCCCCCCCCCCCCC(=O)O)C(=O)O)C(=O)O)C(=O)O)C(=O)O)C(=O)O)C(=O)O)C(=O)N[C@@H](CC(C)C)C(=O)N[C@H](C(=O)N[C@@H](CCCNC(=N)N)C(=O)N[C@@H](CCC(N)=O)C(=O)N[C@@H](CCCNC(=N)N)C(=O)N[C@@H](Cc1ccc(O)cc1)C(N)=O)[C@@H](C)O [Compound 27, Y-Aib-E-G-T-F-T-S-D-Y-S-I-Aib-L-E-K-Q-A-Q-Aib-A-F-V-R-H-L-I-N-K(1,3)-L-T-R-Q-R-Y-NH2.C20DA-gGlu-gGlu-gGlu-gGlu-gGlu-gGlu-eLys(1,2)]	–
9.15	5200	CC[C@H](C)[C@H](NC(=O)[C@H](CC(C)C)NC(=O)[C@H](Cc1c[nH]cn1)NC(=O)[C@H](CCCNC(=N)N)NC(=O)[C@@H](NC(=O)[C@H](Cc1ccccc1)NC(=O)[C@H](C)NC(=O)C(C)(C)NC(=O)[C@H](CCC(N)=O)NC(=O)[C@H](C)NC(=O)[C@H](CCC(N)=O)NC(=O)[C@H](CCCCN)NC(=O)[C@H](CCC(=O)O)NC(=O)[C@H](CC(C)C)NC(=O)C(C)(C)NC(=O)[C@@H](NC(=O)[C@H](CO)NC(=O)[C@H](Cc1ccc(O)cc1)NC(=O)[C@H](CC(=O)O)NC(=O)[C@H](CO)NC(=O)[C@@H](NC(=O)[C@H](Cc1ccccc1)NC(=O)[C@@H](NC(=O)CNC(=O)[C@H](CCC(=O)O)NC(=O)C(C)(C)NC(=O)[C@@H](N)Cc1ccc(O)cc1)[C@@H](C)O)[C@@H](C)O)[C@@H](C)CC)C(C)C)C(=O)N[C@@H](CC(N)=O)C(=O)N[C@@H](CCCCNC(=O)[C@@H](N)CCCCNC(=O)CC[C@H](NC(=O)CC[C@H](NC(=O)CC[C@H](NC(=O)CC[C@H](NC(=O)CC[C@H](NC(=O)CC[C@H](NC(=O)CC[C@H](NC(=O)CCCCCCCCCCCCCCCCCCC(=O)O)C(=O)O)C(=O)O)C(=O)O)C(=O)O)C(=O)O)C(=O)O)C(=O)O)C(=O)NC(C)(C)C(=O)N[C@H](C(=O)N[C@@H](CCCNC(=N)N)C(=O)N[C@@H](CCC(N)=O)C(=O)N[C@@H](CCCNC(=N)N)C(=O)N[C@@H](Cc1ccc(O)cc1)C(N)=O)[C@@H](C)O [Compound 35, Y-Aib-E-G-T-F-T-S-D-Y-S-I-Aib-L-E-K-Q-A-Q-Aib-A-F-V-R-H-L-I-N-K(1,3)-Aib-T-R-Q-R-Y-NH2.C20DA-gGlu-gGlu-gGlu-gGlu-gGlu-gGlu-gGlu-eLys(1,2)]	–
9.10	4200	CC[C@H](C)[C@H](NC(=O)[C@H](CC(C)C)NC(=O)[C@H](Cc1c[nH]cn1)NC(=O)[C@H](CCCNC(=N)N)NC(=O)[C@@H](NC(=O)[C@H](Cc1ccccc1)NC(=O)[C@H](C)NC(=O)C(C)(C)NC(=O)[C@H](CCC(N)=O)NC(=O)[C@H](C)NC(=O)[C@H](CCC(N)=O)NC(=O)[C@H](CCCCN)NC(=O)[C@H](CCC(=O)O)NC(=O)[C@H](CC(C)C)NC(=O)C(C)(C)NC(=O)[C@@H](NC(=O)[C@H](CO)NC(=O)[C@H](Cc1ccc(O)cc1)NC(=O)[C@H](CC(=O)O)NC(=O)[C@H](CO)NC(=O)[C@@H](NC(=O)[C@H](Cc1ccccc1)NC(=O)[C@@H](NC(=O)CNC(=O)[C@H](CCC(=O)O)NC(=O)C(C)(C)NC(=O)[C@@H](N)Cc1ccc(O)cc1)[C@@H](C)O)[C@@H](C)O)[C@@H](C)CC)C(C)C)C(=O)N[C@@H](CC(N)=O)C(=O)N[C@@H](CCCCNC(=O)[C@@H](N)CCNC(=O)CC[C@H](NC(=O)CC[C@H](NC(=O)CC[C@H](NC(=O)CC[C@H](NC(=O)CC[C@H](NC(=O)CC[C@H](NC(=O)CCCCCCCCCCCCCCCCCCC(=O)O)C(=O)O)C(=O)O)C(=O)O)C(=O)O)C(=O)O)C(=O)O)C(=O)NC(C)(C)C(=O)N[C@H](C(=O)N[C@@H](CCCNC(=N)N)C(=O)N[C@@H](CCC(N)=O)C(=O)N[C@@H](CCCNC(=N)N)C(=O)N[C@@H](Cc1ccc(O)cc1)C(N)=O)[C@@H](C)O [Compound 46, Y-Aib-E-G-T-F-T-S-D-Y-S-I-Aib-L-E-K-Q-A-Q-Aib-A-F-V-R-H-L-I-N-K(1,3)-Aib-T-R-Q-R-Y-NH2.C20DA-gGlu-gGlu-gGlu-gGlu-gGlu-gGlu-gDab(1,2)]	–

Further lines, the compound ahead of its results:

Compound	pEC50 (hGIPR)	solubility at 2 h [1] [µg/mL]	EC50 (hGIPR; hGIPR 0.5% hP (nM)) [nM]
CC[C@H](C)[C@H](NC(=O)[C@H](CC(C)C)NC(=O)[C@H](Cc1c[nH]cn1)NC(=O)[C@H](CCCNC(=N)N)NC(=O)[C@@H](NC(=O)[C@H](Cc1ccccc1)NC(=O)[C@H](C)NC(=O)C(C)(C)NC(=O)[C@H](CCC(N)=O)NC(=O)[C@H](C)NC(=O)[C@H](CCC(N)=O)NC(=O)[C@H](CCCCN)NC(=O)[C@H](CCC(=O)O)NC(=O)[C@H](CC(C)C)NC(=O)C(C)(C)NC(=O)[C@@H](NC(=O)[C@H](CO)NC(=O)[C@H](CC(C)C)NC(=O)[C@H](CC(=O)O)NC(=O)[C@H](CO)NC(=O)[C@@H](NC(=O)[C@H](Cc1ccccc1)NC(=O)[C@@H](NC(=O)CNC(=O)[C@H](CCC(=O)O)NC(=O)C(C)(C)NC(=O)[C@@H](N)Cc1ccc(O)cc1)[C@@H](C)O)[C@@H](C)O)[C@@H](C)CC)C(C)C)C(=O)N[C@@H](CC(N)=O)C(=O)N[C@@H](CCCCNC(=O)CC[C@H](NC(=O)CC[C@H](NC(=O)CC[C@H](NC(=O)CC[C@H](NC(=O)CC[C@H](NC(=O)CC[C@H](NC(=O)CCCCCCCCCCCCCCCCCCC(=O)O)C(=O)O)C(=O)O)C(=O)O)C(=O)O)C(=O)O)C(=O)O)C(=O)NC(C)(C)C(=O)N[C@H](C(=O)N[C@@H](CCCNC(=N)N)C(=O)N[C@@H](CCC(N)=O)C(=O)N[C@@H](CCCNC(=N)N)C(=O)N[C@@H](Cc1ccc(O)cc1)C(N)=O)[C@@H](C)O [Compound 51, Y-Aib-E-G-T-F-T-S-D-L-S-I-Aib-L-E-K-Q-A-Q-Aib-A-F-V-R-H-L-I-N-K(1,3)-Aib-T-R-Q-R-Y-NH2.C20DA-gGlu-gGlu-gGlu-gGlu-gGlu-gGlu(1,2)]	–	9300	0.5
CC[C@H](C)[C@H](NC(=O)[C@H](CC(C)C)NC(=O)[C@H](Cc1c[nH]cn1)NC(=O)[C@H](CCCNC(=N)N)NC(=O)[C@@H](NC(=O)[C@H](Cc1ccccc1)NC(=O)[C@H](C)NC(=O)C(C)(C)NC(=O)[C@H](CCC(N)=O)NC(=O)[C@H](C)NC(=O)[C@H](CCC(N)=O)NC(=O)[C@H](CCCCN)NC(=O)[C@H](CCC(=O)O)NC(=O)[C@H](CC(C)C)NC(=O)C(C)(C)NC(=O)[C@@H](NC(=O)[C@H](CO)NC(=O)[C@H](Cc1ccc(O)cc1)NC(=O)[C@H](CC(=O)O)NC(=O)[C@H](CO)NC(=O)[C@@H](NC(=O)[C@H](Cc1ccccc1)NC(=O)[C@@H](NC(=O)CNC(=O)[C@H](CCC(=O)O)NC(=O)C(C)(C)NC(=O)[C@@H](N)Cc1ccc(O)cc1)[C@@H](C)O)[C@@H](C)O)[C@@H](C)CC)C(C)C)C(=O)N[C@@H](CC(N)=O)C(=O)N[C@@H](CCCCNC(=O)[C@@H](N)CCCCNC(=O)CC[C@H](NC(=O)CC[C@H](NC(=O)CC[C@H](NC(=O)CC[C@H](NC(=O)CC[C@H](NC(=O)CCCCCCCCCCCCCCCCCCC(=O)O)C(=O)O)C(=O)O)C(=O)O)C(=O)O)C(=O)O)C(=O)NC(C)(C)C(=O)N[C@H](C(=O)N[C@@H](CCCNC(=N)N)C(=O)N[C@@H](CCC(N)=O)C(=O)N[C@@H](CCCNC(=N)N)C(=O)N[C@@H](Cc1ccc(O)cc1)C(N)=O)[C@@H](C)O [Compound 59, Y-Aib-E-G-T-F-T-S-D-Y-S-I-Aib-L-E-K-Q-A-Q-Aib-A-F-V-R-H-L-I-N-K(1,3)-Aib-T-R-Q-R-Y-NH2.C20DA-gGlu-gGlu-gGlu-gGlu-gGlu-eLys(1,2)]	9.40	2100	–
